# Patent publication US20220128542A1, “TREATMENT EFFICIENCY EVALUATION” (TX MEDIC AB, priority 2019, published 2022)
# System: brain of rats subjected to severe traumatic brain injury (sTBI)
# Assay: Ingenuity pathway analysis of differentially regulated genes after sTBI (canonical pathways, diseases and molecular functions; Example 4)
# Parameters: species or system rat
# Method: Pathway analysis of the differentially regulated genes was carried out using the Ingenuity pathway analysis package. The analysis was performed with special reference to pathways and molecular processes and diseases associated with neurodegenerative disease, including dementia, Alzheimer's disease, ALS, TBI and stroke, and with scarring and fibrosis, including glaucoma and normal pressure hydrocephalus (NPH) after subarachnoid haemorrhage.
# [1] = TBI + 1 mg/kg LMW-DS, 2 days after TBI
# [2] = TBI + 1 mg/kg LMW-DS, 7 days after TBI, relative to control
# [3] = TBI + 1 mg/kg LMW-DS, 7 days after TBI
# [4] = TBI + 5 mg/kg LMW-DS, 2 days after TBI
substance,measurement,setting,value
sodium salt of dextran sulfate [LMW-DS],Effect on diseases or functions annotation: Apoptosis of muscle cells,[1],Activated
same,Effect on diseases or functions annotation: Behavior,[1],Activated
same,Effect on diseases or functions annotation: Binding of tumor cell lines,[1],Activated
same,Effect on diseases or functions annotation: Carcinoma,[1],Inhibited
same,Effect on diseases or functions annotation: Cell death,[1],Inhibited
same,Effect on diseases or functions annotation: Cell death of blood cells,[1],Activated
same,Effect on diseases or functions annotation: Cell death of immune cells,[1],Activated
same,Effect on diseases or functions annotation: Cell movement,[1],Activated
same,Effect on diseases or functions annotation: Cell movement of muscle cells,[1],Inhibited
same,Effect on diseases or functions annotation: Cell movement of vascular smooth muscle cells,[1],Inhibited
same,Effect on diseases or functions annotation: Cell proliferation of T lymphocytes,[1],Inhibited
same,Effect on diseases or functions annotation: Cellular homeostasis,[1],Activated
same,Effect on diseases or functions annotation: Development of connective tissue cells,[1],Inhibited
same,Effect on diseases or functions annotation: Differentiation of bone cells,[1],Inhibited
same,Effect on diseases or functions annotation: Differentiation of connective tissue cells,[1],Activated
same,Effect on diseases or functions annotation: Differentiation of hematopoietic progenitor cells,[1],Activated
same,Effect on diseases or functions annotation: Differentiation of osteoclasts,[1],Inhibited
same,Effect on diseases or functions annotation: Digestive organ tumor,[1],Inhibited
same,Effect on diseases or functions annotation: Experimentally-induced arthritis,[1],Inhibited
same,Effect on diseases or functions annotation: Extracranial solid tumor,[1],Activated
same,Effect on diseases or functions annotation: Genital tumor,[1],Activated
same,Effect on diseases or functions annotation: Incidence of tumor,[1],Inhibited
same,Effect on diseases or functions annotation: Inflammation of absolute anatomical region,[1],Inhibited
same,Effect on diseases or functions annotation: Inflammation of body cavity,[1],Inhibited
same,Effect on diseases or functions annotation: Inflammation of joint,[1],Inhibited
same,Effect on diseases or functions annotation: Inflammation of organ,[1],Inhibited
same,Effect on diseases or functions annotation: Inflammatory response,[1],Activated
same,Effect on diseases or functions annotation: Interaction of mononuclear leukocytes,[1],Activated
same,Effect on diseases or functions annotation: Leukocyte migration,[1],Activated
same,Effect on diseases or functions annotation: Leukopoiesis,[1],Activated
same,Effect on diseases or functions annotation: Lymphopoiesis,[1],Activated
same,Effect on diseases or functions annotation: Malignant solid tumor,[1],Inhibited
same,Effect on diseases or functions annotation: Migration of cells,[1],Activated
same,Effect on diseases or functions annotation: Necrosis,[1],Inhibited
same,Effect on diseases or functions annotation: Non-hematologic malignant neoplasm,[1],Inhibited
same,Effect on diseases or functions annotation: Pelvic tumor,[1],Inhibited
same,Effect on diseases or functions annotation: Proliferation of blood cells,[1],Inhibited
same,Effect on diseases or functions annotation: Proliferation of lymphatic system cells,[1],Inhibited
same,Effect on diseases or functions annotation: Proliferation of lymphocytes,[1],Inhibited
same,Effect on diseases or functions annotation: Quantity of blood cells,[1],Inhibited
same,Effect on diseases or functions annotation: Quantity of bone,[1],Inhibited
same,Effect on diseases or functions annotation: Quantity of cells,[1],Inhibited
same,Effect on diseases or functions annotation: Quantity of connective tissue cells,[1],Activated
same,Effect on diseases or functions annotation: Quantity of leukocytes,[1],Inhibited
same,Effect on diseases or functions annotation: Quantity of lymphatic system cells,[1],Inhibited
same,Effect on diseases or functions annotation: Quantity of phagocytes,[1],Inhibited
same,Effect on diseases or functions annotation: Rheumatic Disease,[1],Inhibited
same,Effect on diseases or functions annotation: Solid tumor,[1],Inhibited
same,Effect on diseases or functions annotation: Survival of organism,[1],Inhibited
same,Effect on diseases or functions annotation: Synthesis of hormone,[1],Activated
same,Effect on diseases or functions annotation: Thrombus,[1],Activated
same,Effect on diseases or functions annotation: Transport of molecule,[1],Activated
same,"z score, Ingenuity canonical pathway: Adrenomedullin signaling pathway",[2],−1
same,"z score, Ingenuity canonical pathway: ERK5 Signaling",[2],−2
same,"z score, Ingenuity canonical pathway: Endothelin-1 Signaling",[2],1.342
same,"z score, Ingenuity canonical pathway: G Beta Gamma Signaling",[2],1
same,"z score, Ingenuity canonical pathway: NF-κB Signaling",[2],−0.447
same,"z score, Ingenuity canonical pathway: Opioid Signaling Pathway",[2],−0.447
same,"z score, Ingenuity canonical pathway: Role of NFAT in Regulation of the Immune Response",[2],0.816
same,"z score, Ingenuity canonical pathway: Synaptic Long Term Depression",[2],1.342
same,Diseases or functions annotation: Abdominal cancer,[3],Inhibited
same,Diseases or functions annotation: Abdominal carcinoma,[3],Inhibited
same,Diseases or functions annotation: Cell movement,[3],Inhibited
same,Diseases or functions annotation: Cell viability,[3],Inhibited
same,Diseases or functions annotation: Concentration of hormone,[3],Inhibited
same,Diseases or functions annotation: Development of connective tissue cells,[3],Inhibited
same,Diseases or functions annotation: Development of malignant tumor,[3],Inhibited
same,Diseases or functions annotation: Developmental process of synapse,[3],Inhibited
same,Diseases or functions annotation: Differentiation of bone cells,[3],Inhibited
same,Diseases or functions annotation: Differentiation of connective tissue cells,[3],Inhibited
same,Diseases or functions annotation: Digestive organ tumor,[3],Inhibited
same,Diseases or functions annotation: Digestive system cancer,[3],Inhibited
same,Diseases or functions annotation: Epithelial neoplasm,[3],Inhibited
same,Diseases or functions annotation: Formation of plasma membrane,[3],Inhibited
same,Diseases or functions annotation: Frequency of tumor,[3],Inhibited
same,Diseases or functions annotation: Gastrointestinal tumor,[3],Inhibited
same,Diseases or functions annotation: Hematologic cancer,[3],Inhibited
same,Diseases or functions annotation: Hematopoietic neoplasm,[3],Inhibited
same,Diseases or functions annotation: Incidence of tumor,[3],Inhibited
same,Diseases or functions annotation: Large intestine neoplasm,[3],Inhibited
same,Diseases or functions annotation: Liver tumor,[3],Inhibited
same,Diseases or functions annotation: Malignant genitourinary solid tumor,[3],Inhibited
same,Diseases or functions annotation: Metabolism of hormone,[3],Inhibited
same,Diseases or functions annotation: Pelvic tumor,[3],Inhibited
same,Diseases or functions annotation: Quantity of Ca^2+,[3],Inhibited
same,Diseases or functions annotation: Quantity of carbohydrate,[3],Activated
same,Diseases or functions annotation: Quantity of metal,[3],Activated
same,Diseases or functions annotation: Synthesis of lipid,[3],Activated
same,Diseases or functions annotation: Tumorigenesis of epithelial neoplasm,[3],Inhibited
same,Diseases or functions annotation: Tumorigenesis of tissue,[3],Inhibited
same,Diseases or functions annotation: Vaso-occlusion,[3],Activated
same,Diseases or functions annotation: Weight gain,[3],Activated
same,Ingenuity canonical pathway: Adrenomedullin signaling pathway,[3],Inhibited
same,Ingenuity canonical pathway: ERK5 Signaling,[3],Inhibited
same,Ingenuity canonical pathway: Endothelin-1 Signaling,[3],Activated
same,Ingenuity canonical pathway: G Beta Gamma Signaling,[3],Activated
same,Ingenuity canonical pathway: NF-κB Signaling,[3],Inhibited
same,Ingenuity canonical pathway: Opioid Signaling Pathway,[3],Inhibited
same,Ingenuity canonical pathway: Role of NFAT in Regulation of the Immune Response,[3],Activated
same,Ingenuity canonical pathway: Synaptic Long Term Depression,[3],Activated
same,Effect on diseases or functions annotation: Abdominal cancer,[4],Inhibited
same,Effect on diseases or functions annotation: Abdominal carcinoma,[4],Inhibited
same,Effect on diseases or functions annotation: Abdominal neoplasm,[4],Inhibited
same,Effect on diseases or functions annotation: Apoptosis,[4],Activated
same,Effect on diseases or functions annotation: Behavior,[4],Inhibited
same,Effect on diseases or functions annotation: Carcinoma,[4],Inhibited
same,Effect on diseases or functions annotation: Cell death,[4],Activated
same,Effect on diseases or functions annotation: Cell death of antigen presenting cells,[4],Inhibited
same,Effect on diseases or functions annotation: Cell death of immune cells,[4],Inhibited
same,Effect on diseases or functions annotation: Cell death of tumor cell lines,[4],Inhibited
same,Effect on diseases or functions annotation: Cell movement,[4],Inhibited
same,Effect on diseases or functions annotation: Cell movement of tumor cell lines,[4],Inhibited
same,Effect on diseases or functions annotation: Cell proliferation of leukocyte cell lines,[4],Inhibited
same,Effect on diseases or functions annotation: Cellular homeostasis,[4],Inhibited
same,Effect on diseases or functions annotation: Chemotaxis,[4],Inhibited
same,Effect on diseases or functions annotation: Concentration of prostaglandin,[4],Inhibited
same,Effect on diseases or functions annotation: Development of vasculature,[4],Inhibited
same,Effect on diseases or functions annotation: Digestive organ tumor,[4],Inhibited
same,Effect on diseases or functions annotation: Digestive system cancer,[4],Inhibited
same,Effect on diseases or functions annotation: Edema,[4],Activated
same,Effect on diseases or functions annotation: Epithelial neoplasm,[4],Inhibited
same,Effect on diseases or functions annotation: Extracranial solid tumor,[4],Inhibited
same,Effect on diseases or functions annotation: Feeding,[4],Inhibited
same,Effect on diseases or functions annotation: Growth of tumor,[4],Inhibited
same,Effect on diseases or functions annotation: Hematologic cancer,[4],Inhibited
same,Effect on diseases or functions annotation: Incidence of tumor,[4],Inhibited
same,Effect on diseases or functions annotation: Leukocyte migration,[4],Inhibited
same,Effect on diseases or functions annotation: Leukopoiesis,[4],Inhibited
same,Effect on diseases or functions annotation: Locomotion,[4],Inhibited
same,Effect on diseases or functions annotation: Lymphocyte homeostasis,[4],Inhibited
same,Effect on diseases or functions annotation: Lymphocytic cancer,[4],Inhibited
same,Effect on diseases or functions annotation: Lymphocytic neoplasm,[4],Inhibited
same,Effect on diseases or functions annotation: Lymphopoiesis,[4],Inhibited
same,Effect on diseases or functions annotation: Lymphoproliferative disorder,[4],Inhibited
same,Effect on diseases or functions annotation: Malignant solid tumor,[4],Inhibited
same,Effect on diseases or functions annotation: Metabolism of hormone,[4],Inhibited
same,Effect on diseases or functions annotation: Migration of cells,[4],Inhibited
same,Effect on diseases or functions annotation: Necrosis,[4],Inhibited
same,Effect on diseases or functions annotation: Neoplasia of leukocytes,[4],Inhibited
same,Effect on diseases or functions annotation: Non-melanoma solid tumor,[4],Inhibited
same,Effect on diseases or functions annotation: Proliferation of hematopoietic progenitor cells,[4],Inhibited
same,Effect on diseases or functions annotation: Quantity of cells,[4],Inhibited
same,Effect on diseases or functions annotation: Quantity of epithelial tissue,[4],Inhibited
same,Effect on diseases or functions annotation: Quantity of neuroglia,[4],Inhibited
